Here are results for one compound from article PMC6086659 (eLife, 2018).

The target in the assay is T1, GABAA receptor β1 subunit (α1β1γ2SEM tri-heteromer) (Rattus norvegicus, UniProt P15431+P62813, P15431:DEL334-439/P15431:INS334GT/P62813:DEL340-408).
T1 construct: gene Gabrb1; purified α1β1γ2SEM receptor-Fab complex (M3/M4 loop deletions in α1 and β1; full-length γ2S); with GABAA receptor α1 subunit (Gabra1, P62813) and γ2S subunit (Gabrg2, P18508); 8E3 Fab
As to the kind of experiment: radioligand saturation binding (scintillation proximity assay). (In general: In a scintillation proximity assay essentially only radioactivity close to the scintillant gives light.)

T1 sequence (P15431 with tags, fused parts or gaps DEL334-439/INS334GT): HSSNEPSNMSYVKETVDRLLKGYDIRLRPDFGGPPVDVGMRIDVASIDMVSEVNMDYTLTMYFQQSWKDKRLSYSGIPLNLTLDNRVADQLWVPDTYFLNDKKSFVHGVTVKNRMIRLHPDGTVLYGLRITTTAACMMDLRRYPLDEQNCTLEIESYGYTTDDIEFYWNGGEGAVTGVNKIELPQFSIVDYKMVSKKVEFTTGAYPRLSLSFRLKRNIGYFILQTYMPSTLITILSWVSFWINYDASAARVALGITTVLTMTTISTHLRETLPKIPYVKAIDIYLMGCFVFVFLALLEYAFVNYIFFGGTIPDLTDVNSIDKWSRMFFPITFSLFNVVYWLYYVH
T1 sequence (P62813 with tags, fused parts or gaps DEL340-408): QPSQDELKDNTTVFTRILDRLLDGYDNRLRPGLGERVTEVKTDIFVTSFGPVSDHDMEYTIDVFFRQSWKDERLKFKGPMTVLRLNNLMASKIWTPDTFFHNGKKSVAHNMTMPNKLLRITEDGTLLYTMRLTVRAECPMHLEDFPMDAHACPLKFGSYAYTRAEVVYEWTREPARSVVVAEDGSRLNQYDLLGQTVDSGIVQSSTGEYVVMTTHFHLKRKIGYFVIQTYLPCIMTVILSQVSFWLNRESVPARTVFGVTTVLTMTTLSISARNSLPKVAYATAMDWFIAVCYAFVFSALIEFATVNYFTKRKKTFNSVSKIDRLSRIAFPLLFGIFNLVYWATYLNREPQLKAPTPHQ
T1 sequence (P18508 39-466 partner): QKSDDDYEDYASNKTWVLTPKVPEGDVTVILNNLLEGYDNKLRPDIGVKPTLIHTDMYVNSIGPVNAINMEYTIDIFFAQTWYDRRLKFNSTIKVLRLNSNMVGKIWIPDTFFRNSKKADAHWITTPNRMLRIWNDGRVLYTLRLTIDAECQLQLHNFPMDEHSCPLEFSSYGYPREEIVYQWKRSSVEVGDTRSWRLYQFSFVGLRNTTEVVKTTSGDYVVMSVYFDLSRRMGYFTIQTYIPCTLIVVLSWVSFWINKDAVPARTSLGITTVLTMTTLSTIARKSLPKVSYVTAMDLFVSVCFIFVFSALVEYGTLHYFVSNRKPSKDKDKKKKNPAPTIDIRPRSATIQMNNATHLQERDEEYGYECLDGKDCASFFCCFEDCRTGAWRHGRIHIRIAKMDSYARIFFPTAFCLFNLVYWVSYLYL

By Kd is commonly meant the free concentration of one partner at which half of the binding sites on the other are occupied at equilibrium, for simple one-to-one binding. Turning to `NCc1cc(=O)[nH]o1` [muscimol], the Kd came out at 109 nM.
